Reference: DBAASP
In brackets after ≈: the same amount, converted by molar mass.

Columns and labels:
Test in all cases: ≥ marks a high value that may be exact or a test limit, other limits are often not marked, values filed in µg/mL are converted to µM
Streptococcus sanguinis = tested on: Streptococcus sanguinis
Staphylococcus aureus = tested on: Staphylococcus aureus
[1] = tested on: Candida glabrata ATCC 90030
[2] = tested on: Aspergillus niger ATCC 9029
[3] = tested on: Aspergillus fumigatus Af293
Candida krusei DSM 70079 = tested on: Candida krusei DSM 70079
[4] = tested on: Aspergillus flavus PFCC 100
[5] = tested on: Candida albicans ATCC 10231
Escherichia coli O111:B4 = tested on: Escherichia coli O111:B4
[6] = tested on: Staphylococcus aureus SAP 0017
Bacillus subtilis = tested on: Bacillus subtilis
[7] = tested on: Pseudomonas aeruginosa H103
[8] = tested on: Salmonella typhimurium C610
[9] = tested on: Staphylococcus epidermidis
Enterococcus faecalis = tested on: Enterococcus faecalis
[10] = tested on: Staphylococcus aureus K147
[11] = tested on: Staphylococcus aureus DSM 1104
[12] = tested on: Escherichia coli DSM 1103
[13] = tested on: Micrococcus luteus DSM 1790
[14] = tested on: Bacillus subtilis ATCC 6633
[15] = tested on: Escherichia coli DH5alpha
[16] = tested on: Kocuria rhizophila DSM 348
[17] = tested on: Enterobacter cloacae ATCC 23355
[18] = tested on: Staphylococcus aureus ATCC 6538
[19] = tested on: Bacillus subtilis CCT 2471
[20] = tested on: Escherichia coli CCT 1371
[21] = tested on: Staphylococcus aureus ATCC 25923
[22] = tested on: Staphylococcus saprophyticus
[23] = tested on: Escherichia coli ATCC 25922
[24] = tested on: Candida albicans ATCC 14053
[25] = tested on: Escherichia coli ATCC 11775
[26] = tested on: Staphylococcus aureus ATCC 12600
[27] = tested on: Micrococcus luteus ATCC 49732
[28] = tested on: Escherichia coli CIP 54.8T
[29] = tested on: Bacillus megaterium CIP 51.17
[30] = tested on: Aspergillus fumigatus ATCC 1022
[31] = tested on: Aspergillus niger ATCC 9142
[32] = tested on: Trichophyton mentagrophytes ATCC 32510
[33] = tested on: Enterococcus faecalis ATCC 29212
[34] = tested on: Saccharomyces cerevisiae PTCC 5052
[35] = tested on: Cryptococcus neoformans ATCC 2517
[36] = tested on: Bacillus subtilis ATCC 6051
[37] = tested on: Aspergillus flavus ATCC 24109
[38] = tested on: Candida krusei ATCC 28870
[39] = tested on: Pseudomonas aeruginosa ATCC 27853
[40] = tested on: Microsporum canis PTCC 5069

NC(=O)[C@H](Cc1ccccc1)NC(=O)[C@H](Cc1ccccc1)NC(=O)[C@H](Cc1ccccc1)NC(=O)[C@H](Cc1ccccc1)NC(=O)[C@H](Cc1ccccc1)NC(=O)[C@H](Cc1ccccc1)NC(=O)[C@H](Cc1ccccc1)NC(=O)[C@@H](N)Cc1ccccc1 [FFFFFFFF]
MIC (Streptococcus sanguinis): 7.1 µM (≈ 8.48 µg/mL)
MIC (Staphylococcus aureus): 5.8 µM (≈ 6.92 µg/mL)

CC[C@H](C)[C@H](NC(=O)[C@@H](NC(=O)[C@H](CCCCN)NC(=O)[C@H](CC(=O)O)NC(=O)[C@H](C)NC(=O)[C@H](CCC(N)=O)NC(=O)[C@H](CCCN=C(N)N)NC(=O)[C@@H](NC(=O)[C@H](CO)NC(=O)CNC(=O)[C@H](CCCN=C(N)N)NC(=O)[C@H](CCC(=O)O)NC(=O)[C@H](Cc1c[nH]c2ccccc12)NC(=O)[C@@H](NC(=O)[C@H](CS)NC(=O)[C@H](CC(C)C)NC(=O)[C@H](CCC(=O)O)NC(=O)[C@H](CCC(N)=O)NC(=O)[C@H](CCCCN)NC(=O)[C@H](CO)NC(=O)[C@@H](NC(=O)[C@H](CCCN=C(N)N)NC(=O)CN)[C@@H](C)O)[C@@H](C)O)C(C)C)[C@@H](C)O)C(=O)N[C@@H](C)C(=O)NCC(=O)O [GRTSKQELCTWERGSVRQADKTIAG]
MIC [1]: 19.8 µM (≈ 55 µg/mL)
MIC [2]: 22.5 µM (≈ 62.5 µg/mL)
MIC [3]: 20.7 µM (≈ 57.5 µg/mL)
MIC (Candida krusei DSM 70079): 20.7 µM (≈ 57.5 µg/mL)
MIC [4]: 23.4 µM (≈ 65 µg/mL)
MIC [5]: 21.6 µM (≈ 60 µg/mL)

CC[C@H](C)[C@H](NC(=O)[C@H](C)NC(=O)[C@@H]1CCCN1C(=O)CNC(=O)[C@H](C)NC(=O)[C@@H](NC(=O)[C@H](CCCCN)NC(=O)[C@H](CC(C)C)NC(=O)CNC(=O)[C@H](CO)NC(=O)[C@H](CC(C)C)NC(=O)[C@@H](NC(=O)[C@H](CCCN=C(N)N)NC(=O)[C@H](CCCN=C(N)N)NC(=O)[C@H](Cc1c[nH]c2ccccc12)NC(=O)[C@H](Cc1c[nH]c2ccccc12)NC(=O)[C@H](CCCCN)NC(=O)[C@@H](N)CCCCN)C(C)C)[C@@H](C)O)C(=O)N[C@@H](CCC(N)=O)C(=O)N[C@@H](CO)C(=O)N[C@H](C(=O)N[C@@H](CC(C)C)C(=O)N[C@@H](CC(N)=O)C(=O)N[C@@H](CCCCN)C(=O)O)C(C)C [KKWWRRVLSGLKTAGPAIQSVLNK]
MIC (Escherichia coli O111:B4): 5.85 µM (≈ 16 µg/mL)
MIC [6]: ≥ 46.8 µM
MIC (Bacillus subtilis): ≥ 46.8 µM
MIC [7]: 23.4 µM (≈ 64 µg/mL)
MIC [8]: 5.85 µM (≈ 16 µg/mL)
MIC [9]: ≥ 46.8 µM
MIC (Enterococcus faecalis): ≥ 46.8 µM
MIC [10]: ≥ 46.8 µM

CC(C)C[C@H](NC(=O)[C@H](C)NC(=O)[C@H](CCCCN)NC(=O)[C@H](CC(C)C)NC(=O)[C@H](C)NC(=O)[C@H](CC(C)C)NC(=O)[C@H](CCCCN)NC(=O)[C@H](CC(C)C)NC(=O)[C@H](C)NC(=O)[C@H](CC(C)C)NC(=O)[C@@H](N)CCCCN)C(=O)N[C@@H](CCCCN)C(=O)N[C@@H](C)C(=O)N[C@@H](C)C(=O)N[C@@H](CC(C)C)C(=O)N[C@@H](CCCCN)C(=O)N[C@@H](CC(C)C)C(=O)N[C@@H](C)C(=O)O [KLALKLALKALKAALKLA]
MIC [11]: ≥ 68.2 µM
MIC [12]: ≥ 68.2 µM
MIC [13]: ≥ 68.2 µM
MIC [14]: ≥ 68.2 µM
MIC [15]: ≥ 68.2 µM
MIC [16]: ≥ 68.2 µM

CC[C@H](C)[C@H](NC(=O)CNC(=O)[C@H](CCSC)NC(=O)[C@H](CC(C)C)NC(=O)[C@H](CCCCN)NC(=O)[C@@H](N)CC(C)C)C(=O)N[C@H](C(=O)N[C@@H](CCCCN)C(=O)N[C@@H](CCCCN)C(=O)N[C@H](C(=O)N[C@@H](CC(C)C)C(=O)NCC(=O)N[C@@H](C)C(=O)N[C@@H](CC(C)C)C(N)=O)C(C)C)C(C)C [LKLMGIVKKVLGAL]
MIC [17]: 17 µM (≈ 25.2 µg/mL)
MIC [18]: 34 µM (≈ 50.4 µg/mL)
MIC [19]: ≥ 68 µM
MIC [20]: 17 µM (≈ 25.2 µg/mL)
MIC [9]: ≥ 34 µM
MIC [21]: 7 µM (≈ 10.4 µg/mL)
MIC [22]: 3 µM (≈ 4.45 µg/mL)
MIC [23]: 7 µM (≈ 10.4 µg/mL)

CC(C)C[C@H](NC(=O)[C@H](Cc1cnc[nH]1)NC(=O)[C@@H](N)C(C)C)C(=O)N1CCC[C@H]1C(=O)N1CCC[C@H]1C(=O)O [VHLPP]
MIC [24]: ≥ 479 µM
MIC [25]: ≥ 479 µM
MIC [26]: ≥ 479 µM
MIC [27]: ≥ 479 µM

CC[C@H](C)[C@H](NC(=O)[C@H](CCCN=C(N)N)NC(=O)[C@H](CC(N)=O)NC(=O)[C@H](CC(C)C)NC(=O)[C@H](Cc1ccccc1)NC(=O)[C@H](CCCN=C(N)N)NC(=O)[C@H](Cc1ccccc1)NC(=O)[C@H](CCCN=C(N)N)NC(=O)[C@@H](NC(=O)[C@H](CC(C)C)NC(=O)[C@@H](NC(=O)[C@@H](N)C(C)C)[C@@H](C)CC)[C@@H](C)O)C(=O)N[C@H](C(=O)N[C@@H](CCC(=O)O)C(=O)N1CCC[C@H]1C(=O)N[C@@H](CC(C)C)C(=O)N[C@@H](CC(C)C)C(=O)N[C@@H](CCCCN)C(=O)N[C@@H](CCCCN)C(=O)N[C@@H](C)C(=O)O)C(C)C [VILTRFRFLNRIVEPLLKKA]
MIC [28]: ≥ 35.4 µM
MIC [29]: ≥ 100 µM

CC[C@H](C)[C@H](NC(=O)[C@H](CCCCN)NC(=O)[C@H](Cc1ccccc1)NC(=O)[C@@H](N)Cc1c[nH]c2ccccc12)C(=O)N[C@H](C(=O)N[C@@H](CCCCN)C(=O)N[C@@H](CCCCN)C(=O)O)[C@@H](C)CC [WFKIIKK]
MIC [1]: ≥ 130 µM
MIC [30]: 7.59 µM (≈ 7.3 µg/mL)
MIC [31]: ≥ 130 µM
MIC [32]: ≥ 65 µM
MIC [33]: > 1040 µM
MIC [34]: 16.6 µM (≈ 16 µg/mL)
MIC [21]: > 1040 µM
MIC [35]: ≥ 1040 µM
MIC [36]: ≥ 1040 µM
MIC [37]: ≥ 1040 µM
MIC [38]: ≥ 33.3 µM
MIC [39]: > 1040 µM
MIC [5]: 16.6 µM (≈ 16 µg/mL)
MIC [40]: ≥ 130 µM
MIC [23]: > 1040 µM
